# Source: patent publication EP0491061A1, “Use of enalapril and perindopril as prolactin-lowering medicament” (Weth, Gosbert Dr. med., Dr. rer. nat., priority 1990, dated 1992)
# “Also recorded” adds a separate entry of the source.
# How the values were obtained:
# Dopamin = assay: Plasma dopamine determination (method of Weth) in patients with circulatory disorders after dosing; assay type: in vivo, Patienten; details: for Dopamin MW: mean of 12 patients
# From the text: Die durch die erfindungsgemäß verwendeten N-(Aminoacyl)-aminosäuren erhöhte Freisetzung von Dopamin bei gleichzeitiger Senkung des Prolaktins konnte durch pharmakologische Tests veranschaulicht und bewiesen werden. Die Dopaminbestimmung wurde nach G. Weth, "Das Verhalten der Neurotransmitter....", Dissertation, Würzburg, 1987, S. 123-138, durchgeführt. Die Bestimmung von Prolaktin wurde radioimmunologisch nach den Methoden von P. Hwang, H. Guyda, H. Friesen, Proc. Nat. Sci. (USA) 1971,68-8, S.1902-06 durchgeführt.
# Für die Untersuchungen wurden 2x12 Patienten (Alter 75±10 Jahre) herangezogen, die unter Durchblutungsstörungen, sowohl peripheren als auch zentralen, litten. Bei diesen Patienten wurden sowohl vor der Gabe von Enalaprilhydrogenmaleat, als auch 15, 30, 60, und 120 Minuten nach der Gabe von Enalaprilhydrogenmaleat Dopamin und Prolaktin bestimmt.
# Die Patienten bekamen sublingual […] Enalaprilhydrogenmaleat verabreicht (RR zwischen 100/70 und 170/110; MW 130/90 mm Hg).
# Die Bestimmung der Dopamin- und Prolaktinwerte wurde wie folgt vorgenommen. In Zeitabschnitten von 15, 30, 60 und 120 Minuten wurden dem Patienten je 5 ml Blut entnommen und in speziell präparierten Vakuum-Behältern, die Glutathion und EDTA enthielten gegeben. Das Blut wird sofort auf 2°C abgekühlt und bei 2°C zentrifugiert. Das überstehende Blutplasma wurde bis zur Dopamin- und Prolaktinbestimmung bei minus 80 °C tiefgefroren.
# Die Dimensionsangaben betragen für Dopamin pg/ml bzw. ng/l und für Prolaktin ng/ml.
# Prolaktin = assay: Plasma prolactin determination by radioimmunoassay (method of Hwang et al.) in patients after dosing; assay type: in vivo, Patienten; details: for Prolaktinsenkung: average weight 60 kg
compound,measurement,setting,value
CCOC(=O)[C@H](CCc1ccccc1)N[C@@H](C)C(=O)N1CCC[C@H]1C(=O)O [Enalaprilhydrogenmaleat],Dopamin MW,"Dopamin; 15 min after 20 mg Enalaprilhydrogenmaleat, plasma",143 pg/mL
same,Dopamin MW,"Dopamin; 30 min after 20 mg Enalaprilhydrogenmaleat, plasma",188 pg/mL
same,Dopamin MW,"Dopamin; 60 min after 20 mg Enalaprilhydrogenmaleat, plasma",253 pg/mL
same,Dopamin MW,"Dopamin; 90 min after 20 mg Enalaprilhydrogenmaleat, plasma",230 pg/mL
same,Dopamin MW,"Dopamin; 120 min after 20 mg Enalaprilhydrogenmaleat, plasma",182 pg/mL
same,Höhepunkt des Dopaminanstiegs (time),"Dopamin; Fig. 1, 20 mg sublingual, average weight 60 kg, plasma",60 min
same,Anstieg des Dopamins,"Dopamin; in words, 15 min after sublingual dosing",hochsignifikanten Anstieg; also recorded: signifikanten Anstieg
same,Dopamin MW,"Dopamin; time 0 (before dosing), 20 mg Enalaprilhydrogenmaleat, plasma",105 pg/mL
same,Prolaktin MW,"Prolaktin; 15 min after 20 mg Enalaprilhydrogenmaleat, plasma, mean of 12 patients","15,4 ng/ml"
same,Prolaktin MW,"Prolaktin; 30 min after 20 mg Enalaprilhydrogenmaleat, plasma, mean of 12 patients","14,3 ng/ml"
same,Prolaktin MW,"Prolaktin; 60 min after 20 mg Enalaprilhydrogenmaleat, plasma, mean of 12 patients","11,9 ng/ml"
same,Prolaktin MW,"Prolaktin; 90 min after 20 mg Enalaprilhydrogenmaleat, plasma, mean of 12 patients","10,8 ng/ml"
same,Prolaktin MW,"Prolaktin; 120 min after 20 mg Enalaprilhydrogenmaleat, plasma, mean of 12 patients","10,2 ng/ml"
same,Senkung des Prolaktins,"Prolaktin; in words, 30 min after sublingual dosing",deutlichen Senkung
same,Prolaktinsenkung,"Prolaktin; in words, Fig. 2, 30 min after 20 mg oral",signifikante
same,Prolaktinsenkung,"Prolaktin; in words, Fig. 2, 60 min after 20 mg oral",hochsignifikante Prolaktinsenkung
same,Abfall von Prolaktin,"Prolaktin; in words, after 25 mg (so in the source)",signifikanten Abfall
same,Prolaktin MW,"Prolaktin; time 0 (before dosing), 20 mg Enalaprilhydrogenmaleat, plasma, mean of 12 patients","16,2 ng/ml"
CCC[C@H](N[C@@H](C)C(=O)N1[C@H](C(=O)O)C[C@@H]2CCCC[C@@H]21)C(=O)OCC [Perindopril],Prolaktin MW,"Prolaktin; 30 min after 20 mg Perindopril oral, mean of 12 patients (average weight 60 kg)","12,3 pg/ml"
same,Prolaktin im Blutplasma,"Prolaktin; Fig. 3, 30 min after 20 mg oral",12 ng/mL
same,Prolaktin im Blutplasma,"Prolaktin; Fig. 3, 90 min after 20 mg oral",7 ng/mL
same,Anfangskonzentration Prolaktin,"Prolaktin; Fig. 3, before 20 mg oral, blood plasma",15 ng/mL
